Measurements from patent US20020037931A1, “Substituted nitrated catechols, their use in the treatment of some central and peripheral nervous system disorders and pharmaceutical compositions containing them” (priority 2000, published 2002).

Columns and labels:
COMT [1] = test: COMT activity (methylation of adrenaline to metanephrine) in rat liver homogenates; type: biochemical; settings: rat liver homogenate; test compound 3 μM; means±SEM, n=4-8
COMT [2] = target: T1, COMT (Homo sapiens, UniProt P21964); test: COMT activity in intact SK-N-SH cell monolayers; type: cell-based; settings: SK-N-SH cells; test compound 100 nM; means±SEM, n=4-8
T1 construct: COMT activity was evaluated in cell monolayers by the ability to methylate adrenaline; host or cells: SK-N-SH cells
T1 sequence (P21964 1-271): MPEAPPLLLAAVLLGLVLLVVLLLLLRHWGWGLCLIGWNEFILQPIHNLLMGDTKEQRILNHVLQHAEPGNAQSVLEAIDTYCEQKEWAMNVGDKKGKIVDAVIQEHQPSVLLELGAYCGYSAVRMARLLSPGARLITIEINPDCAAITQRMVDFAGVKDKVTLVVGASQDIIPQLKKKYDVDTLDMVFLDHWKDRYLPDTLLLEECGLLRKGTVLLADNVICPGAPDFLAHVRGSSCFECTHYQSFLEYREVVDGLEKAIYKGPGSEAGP

COMT [3] = test: COMT activity (methylation of adrenaline to metanephrine) in rat brain homogenates; type: biochemical; settings: rat brain homogenate; test compound 100 nM; means±SEM, n=4-8

SMILES | COMT activity, Liver (% of control) (COMT [1]) | COMT activity, SK-N-SH (% of control) (COMT [2]) | COMT activity, Brain (% of control) (COMT [3])
O=C(CCN1CCCC1)c1ccc(O)c(O)c1[N+](=O)[O-] [Compound 28, 1-(3,4-Dihydroxy-2-nitro-phenyl)-3-pyrrolidin-1-yl-propan-1-one] | 2.2 ± 0.2 % of control | 7 ± 0 % of control | 14 ± 1 % of control
O=C1c2c(cc(O)c(O)c2[N+](=O)[O-])CC1CN1CCOCC1 (stereo not drawn) [Compound 29, 5,6-Dihydroxy-2-morpholin-4-ylmethyl-7-nitro-indan-1-one] | 0.6 ± 0.0 % of control | 21 ± 1 % of control | 12 ± 1 % of control
O=C1c2c(cc(O)c(O)c2[N+](=O)[O-])CC1CN1CCCCC1 (stereo not drawn) [Compound 30, 5,6-Dihydroxy-7-nitro-2-piperidin-1-ylmethyl-indan-1-one] | 1.4 ± 0.1 % of control | 17 ± 1 % of control | 8 ± 0 % of control
CCN(CC)C(=O)C1CCCN(CCC(=O)c2ccc(O)c(O)c2[N+](=O)[O-])C1 (stereo not drawn) [Compound 31, 1-[3-(3,4-Dihydroxy-2-nitro-phenyl)-3-oxo-propyl]-piperidine-3-carboxylic acid diethylamide] | 1.7 ± 0.6 % of control | 13 ± 2 % of control | 8 ± 0 % of control
CC1CCCN(CCC(=O)c2ccc(O)c(O)c2[N+](=O)[O-])C1 (stereo not drawn) [Compound 32, 1-(3,4-Dihydroxy-2-nitro-phenyl)-3-(3-methyl-piperidin-1-yl)-propan-1-one] | 2.3 ± 0.2 % of control | 11 ± 2 % of control | 10 ± 0 % of control
CC1CCN(CCC(=O)c2ccc(O)c(O)c2[N+](=O)[O-])CC1 [Compound 33, 1-(3,4-Dihydroxy-2-nitro-phenyl)-3-(4-methyl-piperidin-1-yl)-propan-1-one] | 2.2 ± 0.3 % of control | 14 ± 0 % of control | 6 ± 0 % of control
O=C(CCN1CCCC2CCCCC21)c1ccc(O)c(O)c1[N+](=O)[O-] (stereo not drawn) [Compound 34, 1-(3,4-Dihydroxy-2-nitro-phenyl)-3-(octahydro-quinolin-1-yl)-propan-1-one] | 1.6 ± 0.2 % of control | 11 ± 2 % of control | 5 ± 0 % of control
CC1CC(C)CN(CCC(=O)c2ccc(O)c(O)c2[N+](=O)[O-])C1 (stereo not drawn) [Compound 35, 1-(3,4-Dihydroxy-2-nitro-phenyl)-3-(3,5-dimethyl-piperidin-1-yl)-propan-1-one] | 23. ± 0.3 % of control | 13 ± 1 % of control | 9 ± 0 % of control
O=C(CCN1CCC(Cc2ccccc2)CC1)c1ccc(O)c(O)c1[N+](=O)[O-] [Compound 36, 3-(4-benzyl-piperidin-1-yl)-1-(3,4-Dihydroxy-2-nitro-phenyl)-propan-1-one] | 2.2 ± 0.4 % of control | 9 ± 2 % of control | 6 ± 0 % of control
COc1ccc(N2CCN(CCC(=O)c3ccc(O)c(O)c3[N+](=O)[O-])CC2)cc1 [Compound 37, 1-(3,4-Dihydroxy-2-nitro-phenyl)-3-[4-(4-methoxy-phenyl)-piperazin-1-yl]-propan-1-one] | 1.7 ± 0.3 % of control | 6 ± 2 % of control | 6 ± 0 % of control
O=C(CCN1CCN(c2cccc(C(F)(F)F)c2)CC1)c1ccc(O)c(O)c1[N+](=O)[O-] [Compound 38, 1-(3,4-Dihydroxy-2-nitro-phenyl)-3-[4-(3-trifluoromethyl-phenyl)-piperazin-1-yl]-propan-1-one] | 11.2 ± 1.5 % of control | 6 ± 1 % of control | 7 ± 0 % of control
CCCN1CCN(CCC(=O)c2ccc(O)c(O)c2[N+](=O)[O-])CC1 [Compound 39, 1-(3,4-Dihydroxy-2-nitro-phenyl)-3-(4-propyl-piperazin-1-yl)-propan-1-one] | 0.8 ± 0.2 % of control | 11 ± 0 % of control | 8 ± 0 % of control
CC(=O)Oc1ccc(C(=O)C=Cc2ccccc2)c([N+](=O)[O-])c1OC(C)=O [Compound 40, Acetic acid, 6-acetoxy-2-nitro-3-(3-phenyl-acryloyl)-phenyl ester] | 1.6 ± 0.4 % of control | 8 ± 1 % of control | 10 ± 0 % of control
O=C(C=Cc1ccccc1)c1ccc(O)c(O)c1[N+](=O)[O-] [Compound 41, 1-(3,4-dihydroxy-2-nitro-phenyl)-3-phenyl-propenone] | 1.1 ± 0.2 % of control | 5 ± 0 % of control | 9 ± 1 % of control
O=C(CN1CCOCC1)c1ccc(O)c(O)c1[N+](=O)[O-] [Compound 42, 1-(3,4-Dihydroxy-2-nitro-phenyl)-2-morpholin-4-yl-ethanone] | 0.8 ± 0.2 % of control | 27 ± 1 % of control | 13 ± 0 % of control
O=C1c2c(cc(O)c(O)c2[N+](=O)[O-])CC1CN1CCN(c2cccc(C(F)(F)F)c2)CC1 (stereo not drawn) [Compound 43, 5,6-Dihydroxy-7-nitro-2-[4-(3-trifluoromethyl-phenyl)-piperazin-1-ylmethyl]-indan-1-one] | 0.9 ± 0.2 % of control | 19 ± 7 % of control | 10 ± 1 % of control
O=C1c2c(cc(O)c(O)c2[N+](=O)[O-])CC1CN1CCN(c2ccccc2)CC1 (stereo not drawn) [Compound 44, 5,6-Dihydroxy-7-nitro-2-(4-phenyl-piperazin-1-ylmethyl)-indan-1-one] | 0.6 ± 0.2 % of control | 9 ± 2 % of control | 10 ± 0 % of control
CC(=O)Oc1ccc(C(=O)Cc2ccccc2)c([N+](=O)[O-])c1OC(C)=O [Compound 45, Acetic acid, 6-acetoxy-2-nitro-3-phenylacetyl-phenyl ester] | 0.7 ± 0.2 % of control | 7 ± 3 % of control | 0 ± 0 % of control
CCCC(=O)Oc1ccc(C(=O)Cc2ccccc2)c([N+](=O)[O-])c1OC(=O)CCC [Compound 47, Butyric acid, 6-butyryloxy-2-nitro-3-phenylacetyl-phenyl ester] | 0.6 ± 0.2 % of control | 1 ± 1 % of control | 0 ± 0 % of control
CCOC(=O)Oc1ccc(C(=O)Cc2ccccc2)c([N+](=O)[O-])c1OC(=O)OCC [Compound 48, Carbonic acid, 2-ethoxycarbonyloxy-3-nitro-4-phenylacetyl-phenyl ester ethyl ester] | 0.5 ± 0.1 % of control | 7 ± 3 % of control | 0 ± 0 % of control
CC(=O)Oc1ccc(C(=O)CCCc2ccccc2)c([N+](=O)[O-])c1OC(C)=O [Compound 49, Acetic acid, 6-acetoxy-2-nitro-3-(4-phenyl-butyryl)-phenyl ester] | 1.4 ± 0.8 % of control | 1 ± 0 % of control | 0 ± 0 % of control
CCCC(=O)Oc1ccc(C(=O)CCCc2ccccc2)c([N+](=O)[O-])c1OC(C)=O [Compound 50, Acetic acid, 6-butyryloxy-2-nitro-3-(4-phenyl-butyryl)-phenyl ester] | 0.6 ± 0.5 % of control | 2 ± 1 % of control | 0 ± 0 % of control
CCOC(=O)Oc1ccc(C(=O)CCCc2ccccc2)c([N+](=O)[O-])c1OC(=O)OCC [Compound 51, Carbonic acid, 2-ethoxycarbonyloxy-3-nitro-4-(4-phenyl-butyryl)-phenyl ester ethyl ester] | 0.6 ± 0.3 % of control | 1 ± 0 % of control | 0 ± 0 % of control
